Data: patent publication US9062061B2, “Compound having PARP inhibitory activity” (SANTEN PHARMACEUTICAL CO., LTD., priority 2011, dated 2015)
Where two headings read alike, the source gives them in different places.

Assays:
human recombinant PARP1 = target: T1, human recombinant PARP1 (Homo sapiens, UniProt P09874); test: PARP inhibitory activity measurement test (Universal Colorimetric PARP Assay kit, Trevigen); type: biochemical; conditions: compound concentration: 10 μM, read-out: PARP1 inhibition rate (%)
T1 construct: purchased Trevigen 4677-096-K
T1 sequence (P09874 whole entry): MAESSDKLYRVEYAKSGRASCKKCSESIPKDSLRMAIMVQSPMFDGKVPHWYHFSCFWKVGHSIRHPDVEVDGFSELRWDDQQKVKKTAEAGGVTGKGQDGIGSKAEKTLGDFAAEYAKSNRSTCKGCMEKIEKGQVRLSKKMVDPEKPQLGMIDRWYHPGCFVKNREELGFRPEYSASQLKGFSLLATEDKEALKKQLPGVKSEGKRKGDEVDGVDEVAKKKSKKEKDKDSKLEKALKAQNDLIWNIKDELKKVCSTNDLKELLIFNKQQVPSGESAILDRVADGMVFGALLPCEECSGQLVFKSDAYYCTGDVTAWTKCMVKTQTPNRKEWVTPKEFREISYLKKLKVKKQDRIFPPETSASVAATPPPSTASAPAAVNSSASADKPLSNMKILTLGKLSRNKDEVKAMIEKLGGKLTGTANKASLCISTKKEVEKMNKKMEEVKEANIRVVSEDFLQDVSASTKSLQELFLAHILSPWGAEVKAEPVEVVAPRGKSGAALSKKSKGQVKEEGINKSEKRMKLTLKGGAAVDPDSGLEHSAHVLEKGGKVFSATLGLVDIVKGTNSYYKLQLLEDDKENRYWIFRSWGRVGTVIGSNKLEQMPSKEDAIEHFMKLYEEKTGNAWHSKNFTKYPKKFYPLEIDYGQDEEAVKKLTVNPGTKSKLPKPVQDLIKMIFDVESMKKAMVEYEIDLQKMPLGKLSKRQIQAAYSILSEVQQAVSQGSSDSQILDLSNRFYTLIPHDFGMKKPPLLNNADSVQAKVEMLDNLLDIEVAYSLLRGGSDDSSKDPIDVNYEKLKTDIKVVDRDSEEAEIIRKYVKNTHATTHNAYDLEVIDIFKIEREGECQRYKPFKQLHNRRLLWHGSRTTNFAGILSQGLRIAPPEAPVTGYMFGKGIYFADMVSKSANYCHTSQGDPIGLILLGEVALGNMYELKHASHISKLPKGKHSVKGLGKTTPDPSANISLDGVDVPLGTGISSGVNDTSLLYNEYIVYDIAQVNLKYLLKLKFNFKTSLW
Procedure, shortened: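 Histone-coated wells with recombinant PARP1, activated DNA and biotinylated NAD, with test compound from a 50 μM solution, 1 h at room temperature. Incorporated biotin detected with Strep-HRP and colorimetric substrate at Abs 450. Inhibition (%) calculated against no-compound and no-enzyme controls, n=1–2.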

[1] = system: rat N-methyl-N-nitrosourea (MNU)-induced retinal degeneration model; test: Retinal degeneration inhibitory activity in rat MNU-induced model (retinal volume by OCT); type: in vivo; conditions: po, 168 h, seventh day, Brown Norway male rats, read-out: Retinal volume reduction inhibition rate (%); for inhibition in vivo at 10 mg/kg: test compound 10 mg/kg orally once 30 minutes before MNU
Procedure: For examining influence of the present compound on the retinal degeneration, retinal degeneration inhibitory activity of test compound was evaluated, using a rat N-methyl-N-nitrosourea (hereinafter, “MNU”)-induced retinal degeneration model. The rat MNU-induced retinal degeneration model is a model animal in which cell death of retinal photoreceptor cell is induced by administration of MNU which is a DNA alkylation agent, and is generally used as a model animal for chorioretinal degenerative diseases such as retinitis pigmentosa (Exp. Eye. Res., 84(2), 285-292 (2007)).
By the previous day of MNU administration, retinal volumes of 8-week-old Brown Norway male rats were measured by using optical coherence tomography (OCT) (product of Carl Zeiss, model number: STRATUS OCT Model 3000). An MNU administration liquid was intraperitoneally administered to the rats at a dose of 50 to 60 mg/kg, and on the seventh day after administration, retinal volumes were measured by using OCT. The normal control group underwent no treatment, and retinal volumes were measured on the same day as the MNU administration group. The number of examples in each group was 4 rats (8 eyes).
(Administration Method) • Test compound-administered group: A solution of each test compound suspended in 1% (w/v) methylcellulose aqueous solution was orally administered once 30 minutes before MNU administration at a dose of 1 to 30 mg/kg. • Normal control group and vehicle-administered group: 1% (w/v) methylcellulose aqueous solution was orally administered once 30 minutes before MNU administration.
According to the following Formula 2, retinal volume reduction inhibition rate (%) was calculated. Retinal volume reduction inhibition rate(%)=(RVX-pre/RVX-post−RVB-pre/RVB-post)/(RVA-pre/RVA-post−RVB-pre/RVB-post)×100 [Formula 2]
RVA-pre: retinal volume before MNU administration of normal control group (mm^3)
RVA-post: retinal volume on the seventh day after MNU administration of normal control group (mm^3)
RVB-pre: retinal volume before MNU administration of vehicle-administered group (mm^3)
RVB-post: retinal volume on the seventh day after MNU administration of vehicle-administered group (mm^3)
RVX-pre: retinal volume before MNU administration of test compound-administered group (mm^3)
RVX-post: retinal volume on the seventh day after MNU administration of test compound-administered group (mm^3)

[2] = system: rat thrombin-induced retinal vascular hyperpermeability model; test: Retinal vascular hyperpermeability inhibitory activity in rat thrombin model (intravitreal protein concentration, Bradford method); type: in vivo; conditions: thrombin 3 U/eye intravitreal; test compound 100 mg/kg orally 1.5 hours before and 22.5 hours after thrombin; Brown Norway male rats
Procedure: For examining the influence of the present compound on retinal vascular hyperpermeability, the retinal vascular hyperpermeability inhibitory activity of the test compound was evaluated using a rat thrombin-induced retinal vascular hyperpermeability model. The rat thrombin-induced retinal vascular hyperpermeability model is an animal in which retinal vascular permeability is increased by administration of thrombin, and is used as a model animal for diabetic retinopathy, diabetic macular edema and so on (IONS, 2000, 41(4), S18, 92).
A thrombin liquid preparation was intravitreally administered to 8-week old Brown Norway male rat at a dose of 3 U/eye, and the vitreous body was collected on the next day of administration, and intravitreal protein concentration was measured by the Bradford method. A normal control group received intravitreal administration of DPBS. The number of examples in each group was 4 rats (7-8 eyes).
(Administration Method) • Test compound-administered group: A solution of each test compound suspended in 1% (w/v) methylcellulose aqueous solution was orally administered in a dose of 100 mg/kg, 1.5 hours before and 22.5 hours after thrombin administration. • Normal control group and vehicle-administered group
According to the following Formula 3, retinal vascular hyperpermeability inhibition rate was calculated. […]

| inhibition at 10 µM (human recombinant PARP1) | Structure (SMILES) | inhibition in vivo at 10 mg/kg ([1]; MNU 60 mg/kg i.p.) | Retinal vascular hyperpermeability inhibition rate (%) [2] | inhibition in vivo at 1 mg/kg ([1]; MNU 50 mg/kg i.p., test compound 1 mg/kg orally once 30 minutes before MNU) | inhibition in vivo at 10 mg/kg ([1]; MNU 50 mg/kg i.p.) |
| --- | --- | --- | --- | --- | --- |
| 100% | O=c1[nH]c2cc(CN3CCN(c4ccc(F)cc4)CC3)cn2c2ccccc12 [Compound 2-1, 2-[4-(4-Fluorophenyl)piperazin-1-ylmethyl]pyrrolo[1,2-a]quinazolin-5 (4H)-one] | 65% | 63% |  |  |
| 100% | O=c1[nH]c2cc(CN3CCN(c4ccc(F)cc4)CC3)cn2c2ccc(F)cc12 [Compound 2-45, 7-Fluoro-2-[4-(4-fluorophenyl)piperazin-1-ylmethyl]pyrrolo[1,2-a]quinazolin-5(4H)-one] |  |  | 81% |  |
| 100% | [2H]C([2H])(c1cc2[nH]c(=O)c3ccccc3n2c1)N1CCN(c2ccc(F)cc2)CC1 [Compound 4-1, 2-[1-[4-(4-Fluorophenyl)piperazin-1-yl]-1,1-dideuteriomethyl]pyrrolo[1,2-a]quinazolin-5(4H)-one] |  |  |  | 94% |
